Measured values published in US10377734B2, “Resist composition, method for forming resist pattern, polyphenol derivative for use in the composition” (Mitsubishi Gas Chemical Company, Inc., priority 2013, dated 2019).

Experiment: Solubility test of compound in safe solvent
Format: physicochemical
Conditions: 23° C., ultrasonic wave 30 minutes, visual evaluation; for Solubility test of compound in safe solvent CHN: CHN (cyclohexanone); for Solubility test of compound in safe solvent PGME: PGME (propylene glycol monomethyl ether)
Experimental: (1) Solubility Test of Compound in Safe Solvent
The solubility of the compound in CHN, PGME and PGMEA was evaluated according to the following standard using the dissolution amount in each solvent. The dissolution amount was determined by precisely weighing the compound in a test tube at 23° C.; adding the target solvent to the compound so that a predetermined concentration of the liquid to be obtained was set; applying a ultrasonic wave to the liquid in an ultrasonic washing machine for 30 minutes; and visually evaluating the state of the resulting liquid.
A: 5.0% by mass Dissolution amount
B: 3.0% by mass Dissolution amount <5.0% by mass
C: Dissolution amount <3.0% by mass

| SMILES | Solubility test of compound in safe solvent CHN | Solubility test of compound in safe solvent PGME | Solubility test of compound in safe solvent PGMEA |
| --- | --- | --- | --- |
| CC(C)(C)OC(=O)Oc1ccc2c(C(c3ccc(-c4ccccc4)cc3)c3c(OC(=O)OC(C)(C)C)ccc4cc(OC(=O)OC(C)(C)C)ccc34)c(OC(=O)OC(C)(C)C)ccc2c1 [BisN-1-BOC] | A (5.0% by mass Dissolution amount) | B (3.0% by mass Dissolution amount <5.0% by mass) | A (5.0% by mass Dissolution amount) |
| CC(C)(C)OC(=O)COc1ccc2c(C(c3ccc(-c4ccccc4)cc3)c3c(OCC(=O)OC(C)(C)C)ccc4cc(OCC(=O)OC(C)(C)C)ccc34)c(OCC(=O)OC(C)(C)C)ccc2c1 [BisN-1-MeBOC] | A (5.0% by mass Dissolution amount) | A (5.0% by mass Dissolution amount) | B (3.0% by mass Dissolution amount <5.0% by mass) |
| CC(C)(C)OC(=O)Oc1ccc(C(c2ccc(OC(=O)OC(C)(C)C)cc2)c2ccc3ccc(C(c4ccc(OC(=O)OC(C)(C)C)cc4)c4ccc(OC(=O)OC(C)(C)C)cc4)cc3c2)cc1 [TetP-1-BOC, reference compound] | A (5.0% by mass Dissolution amount) | A (5.0% by mass Dissolution amount) | A (5.0% by mass Dissolution amount) |
| CC(C)(C)OC(=O)Oc1ccc2c3c(ccc2c1)Oc1ccc2cc(OC(=O)OC(C)(C)C)ccc2c1C3c1ccc(-c2ccccc2)cc1 [XBisN-1-BOC] | A (5.0% by mass Dissolution amount) | B (3.0% by mass Dissolution amount <5.0% by mass) | A (5.0% by mass Dissolution amount) |
| CC(C)(C)OC(=O)COc1ccc2c3c(ccc2c1)Oc1ccc2cc(OCC(=O)OC(C)(C)C)ccc2c1C3c1ccc(-c2ccccc2)cc1 [XBisN-1-MeBOC] | A (5.0% by mass Dissolution amount) | A (5.0% by mass Dissolution amount) | B (3.0% by mass Dissolution amount <5.0% by mass) |
